# Values joined by “and” are separate entries in the source; they are usually repeats but may differ in a detail not shown here. Equal values may be shown once.
# What was measured:
# [1] = tested on: melanin synthesis in B16 cells; test: Inhibition of melanin synthesis in B16 cells (T/SHRH027-2019); format: cell-based
# Protocol: (§1) And the cellular melanin content, tyrosinase activity, and tyrosinase inhibition rate are tested within a safe concentration.
# tyrosinase = test: In vitro tyrosinase inhibition assay (T-SHRH015-2018); format: biochemical; conditions: for Cellular tyrosinase activity inhibition (%): in vitro tyrosinase inhibition assay
# Protocol: as §1
# cellular tyrosinase = biological target: T1, cellular tyrosinase (Mus musculus, UniProt P11344); test: Cellular tyrosinase activity inhibition assay in B16 cells; format: cell-based
# T1 construct: endogenous in cells; host or cells: B16 melanoma cells
# T1 sequence (P11344 19-533): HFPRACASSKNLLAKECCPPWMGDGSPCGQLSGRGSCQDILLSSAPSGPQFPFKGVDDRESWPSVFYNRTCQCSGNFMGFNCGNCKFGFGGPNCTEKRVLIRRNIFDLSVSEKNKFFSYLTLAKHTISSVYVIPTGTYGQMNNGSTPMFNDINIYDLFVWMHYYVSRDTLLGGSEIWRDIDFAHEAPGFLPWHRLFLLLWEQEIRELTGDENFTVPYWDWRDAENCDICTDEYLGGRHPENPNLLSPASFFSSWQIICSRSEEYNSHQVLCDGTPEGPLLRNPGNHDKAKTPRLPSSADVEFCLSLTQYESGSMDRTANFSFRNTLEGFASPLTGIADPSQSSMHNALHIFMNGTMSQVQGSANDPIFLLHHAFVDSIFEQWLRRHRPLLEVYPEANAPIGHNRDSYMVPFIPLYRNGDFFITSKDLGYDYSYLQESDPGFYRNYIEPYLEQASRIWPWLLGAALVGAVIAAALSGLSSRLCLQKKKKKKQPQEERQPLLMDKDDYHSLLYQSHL
# Protocol: as §1
# [2] = tested on: chick embryo chorioallantoic membrane (CAM); test: Eye irritation/corrosion chick embryo chorioallantoic membrane assay (irritation score IS)
# Protocol: The test method is as follows.
# Preparation of CAM: The viability of 9-day-old chick embryos is checked using fertilized eggs. The shell of the air cell is removed using dental serrated forceps to expose the white egg membrane, with care taken to avoid damaging the integrity of the membrane. A drop of 0.9% sodium chloride solution is added with a pipette to moisten the membrane. The inner membrane is carefully removed with forceps, ensuring that the vascular membrane is not damaged. At this point, the structure of the vascular system is observed again, and a judgment is made regarding its integrity and suitability for the test.
# Pre-test: Two chick embryos are taken to assess the reactivity of this batch, with the duration of action limited to within 5 min. […]
# Reaction evaluation method: 0.3 mL or 0.3 g of the test substance is applied to the CAM, ensuring that at least 50% of the CAM surface is covered by the test substance. The reaction of the CAM is observed, and the time at which each type of toxicity effect appears within 5 min of application is recorded.
# The irritation score (IS) is a test conducted using the reaction time method, with the irritation score (IS) calculated using Formula (3), and the results are retained to two decimal places: […]
# secH (bleeding time) refers to the average time observed for bleeding to begin on the CAM membrane, measured in seconds(s). secL (vascular lysis time) refers to the average time observed for vascular lysis to begin on the CAM membrane, measured in seconds(s). secC (clotting time) refers to the average time observed for clotting to begin on the CAM membrane, measured in seconds(s).
# [3] = DPPH⋅ radical scavenging rate determination; conditions: 50 to 250 μg/mL, FIG. 6
# Protocol: (§2) The DPPH⋅ radical scavenging rate and ABTS^+⋅ scavenging rate are measured, and the test methods are as follows.
# DPPH⋅ radical scavenging rate determination: For each sample solution at different mass concentrations, 0.2 mL is taken and mixed with 0.8 mL of a 60 μmol/L DPPH⋅ solution (prepared with absolute ethanol). The mixture is then reacted for 30 min in the dark, and the absorbance is measured at a wavelength of 517 nm as A1. The absorbance using 70% ethanol solution instead of the sample is measured as A0, and the absorbance using absolute ethanol instead of the DPPH⋅ solution is measured as A2. VC is used as a positive control during the test. The calculation of the DPPH⋅ radical scavenging rate is shown in Formula (2): […]
# TNF-α = test: TPA-induced mouse ear edema model, TNF-α in ear tissue by ELISA; format: in vivo, mice; conditions: salt 0.8 mg/ear, mandelic acid 0.39 mg/ear
# Protocol: (§3) TPA-induced mouse ear edema model and administration method. Male KM mice of SPF grade weighing 20 g to 23 g are acclimatized at a temperature of 25° C. and a relative humidity of 40% to 70% for 24 h (12 h each under alternating light and dark conditions), and given sufficient food and water to allow them to eat freely. The mice are randomly divided into 6 groups: blank group (BC), negative control group (NC), positive control group (PC), and 2 treatment groups. […] After 6 h, the mice are immediately killed by breaking their necks. The ear tissues are ground in liquid nitrogen, then ground tissues are transferred to a 4 mL EP tube, and 1 mL of T-PER tissue protein extraction reagent is added. The solution is mixed thoroughly for about 30 min, and then subjected to intermittent sonication for 10 s at 20 Hz, followed by 2 min of ultrasonic treatment to fully lyse the ear tissues. The mixture is centrifuged at 4° C. and 13000 r/min for 20 min. Supernatants are collected to determine the levels of the inflammatory factors IL-1α, TNF-α, and MIP-2 in ear tissues using the ELISA method.
# IL-1α = test: TPA-induced mouse ear edema model, IL-1α in ear tissue by ELISA; format: in vivo, mice; conditions: salt 0.8 mg/ear, mandelic acid 0.39 mg/ear
# Protocol: as §3
# [4] = ABTS+⋅ scavenging rate determination; conditions: 50 to 250 μg/mL, FIG. 7
# Protocol: as §2
# ABTS^+⋅ scavenging rate determination: ABTS solution (7 mmol/L) and potassium persulfate solution (2.45 mmol/L) are mixed in a 1:1 (v/v) ratio and shaken to prepare the ABTS stock solution, which is allowed to sit at room temperature for 12 h to 16 h (protected from light). Then, the ABTS stock solution is diluted with a phosphate buffer solution of 10 mmol/L and pH 7.4, and the absorbance A0 of the diluted solution is measured at a wavelength of 734 nm, aiming to reach 0.70±0.002. For each sample solution at different mass concentrations, 50 μL is taken and mixed with 750 μL of the ABTS assay solution. The mixture is thoroughly mixed and allowed to react for 6 min. The absorbance is measured at a wavelength of 734 nm as A1, with an absolute ethanol solution used in place of the ABTS solution to measure the absorbance as A2. VC is used as a positive control during the test, and the calculation of the ABTS^+⋅ scavenging rate follows Formula (2).
# MIP-2 = test: TPA-induced mouse ear edema model, MIP-2 in ear tissue by ELISA; format: in vivo, mice; conditions: salt 0.8 mg/ear, mandelic acid 0.39 mg/ear
# Protocol: as §3
# [5] = Thermogravimetric analysis of thermal decomposition behavior; format: physicochemical; conditions: heating rate 5.0 K/min, FIG. 2
# melanoma cells (B16) = test: Cytotoxicity test by melanoma cells (B16); format: cell-based; conditions: PC 10% DMSO
# [6] = 0.0006%, 0.0012%, 0.002% (m/V), p<0.05 vs blank control
# [7] = reaction time method, single chick embryos 1-6, in s
# [8] = mean of R1-R3, mouse ear tissue 6 h after TPA 2.0 μg/ear
# [9] = mouse ear tissue, 6 h after TPA
# [10] = replicate R1, mouse ear tissue 6 h after TPA 2.0 μg/ear
# [11] = replicate R3, mouse ear tissue 6 h after TPA 2.0 μg/ear
compound,measurement,setting,value
supramolecular tranexamic acid-citric acid ionic salt [Comparative Example 1],Inhibition rate of cell melanin content (%),[1]; 0.0006% m/V,15.32%
same,effect on cell melanin synthesis ability,[1]; [6],had an inhibitory effect on the cell melanin synthesis ability
same,Inhibition rate of cell melanin content (%),[1]; 0.0012% m/V,18.19%
same,Inhibition rate of cell melanin content (%),[1]; 0.0020% m/V,22.51%
same,Cellular tyrosinase activity inhibition (%),tyrosinase; 0.625 % m/V,5.36%
same,Cellular tyrosinase activity inhibition (%),tyrosinase; 1.25 % m/V,60.49%
same,Cellular tyrosinase activity inhibition (%),tyrosinase; 2.50 % m/V,65.38%
same,Cellular tyrosinase activity inhibition (%),tyrosinase; 5 % m/V,67.57%
same,Cellular tyrosinase activity inhibition (%),tyrosinase; 10 % m/V,69.99%
same,inhibition rate on tyrosinase,"tyrosinase; in vitro, concentrations of 1.25 to 10% (m/V)",above 60%
same,Cellular tyrosinase activity inhibition (%),cellular tyrosinase; 0.0006% m/V,2.17%
same,effect on cellular tyrosinase activity,cellular tyrosinase; [6],had an inhibitory effect on cellular tyrosinase activity
same,Cellular tyrosinase activity inhibition (%),cellular tyrosinase; 0.0012% m/V,10.05%
same,Cellular tyrosinase activity inhibition (%),cellular tyrosinase; 0.0020% m/V,11.26%
"O=C(O)C(O)c1ccccc1 (centres unmarked) [mandelic acid, a-hydroxyphenylacetic acid]",irritation classification,"[2]; 2% aqueous solution of the salt, equivalent molar mandelic acid solution, CAM assay",mild irritation
same,Test result: IS,[2]; overall irritation score of 6 chick embryos,IS = 1.03
same,Bleeding severity score,"[2]; reaction time method, single chick embryos 1-6",301 s
same,Coagulation score,[2]; [7],301 and 290 and 250
same,Vascular lysis score,[2]; [7],260 and 280 and 290 and 301 and 210
same,DPPH⋅ radical scavenging effect (ranking),[3],weakest effect
same,TNF-α Concentration,TNF-α; [8],85.98 µg/mL
same,level of TNF-α compared with the negative control group,TNF-α; [9],decrease
same,"TNF-α concentration, R1",TNF-α; [10],85.34 µg/mL
same,"TNF-α concentration, R3",TNF-α; [11],88.27 µg/mL
same,IL-1α Concentration,IL-1α; [8],28.51 µg/mL
same,level of IL-1α compared with the negative control group,IL-1α; [9],decrease
same,"IL-1α concentration, R1",IL-1α; [10],28.59 µg/mL
same,"IL-1α concentration, R3",IL-1α; [11],29.31 µg/mL
same,ABTS+⋅ scavenging effect (ranking),[4],weakest effect
same,MIP-2 Concentration,MIP-2; [8],50.82 µg/mL
same,level of MIP-2 compared with the negative control group,MIP-2; [9],decrease
same,"MIP-2 concentration, R1",MIP-2; [10],51.32 µg/mL
same,"MIP-2 concentration, R3",MIP-2; [11],50.98 µg/mL
same,temperature at which thermal decomposition behavior begins,[5],~135 °C
NC[C@H]1CC[C@H](C(=O)O)CC1 [tranexamic acid],temperature at which thermal decomposition behavior begins,[5],around 77 °C
C[S+](C)[O-] [DMSO],Cell viability (%),melanoma cells (B16),40.26% and 39.46%
O=C1O[C@H]([C@@H](O)CO)C(O)=C1O [VC],DPPH⋅ radical scavenging effect (ranking),[3],best scavenging effect
same,ABTS+⋅ scavenging effect (ranking),[4],best scavenging effect
